From US11357780B2, “Methods and compositions relating to the inhibition of IP6K1” (THE CHILDREN'S MEDICAL CENTER CORPORATION, priority 2018, dated 2022)
Entries after “also recorded” stand apart in the source; their conditions may differ.

Tests used:
[1] = tested on: platelets; experiment: PolyP levels in platelets isolated from TNP-treated mice; format: in vivo, mouse; conditions: platelets from mice treated with TNP 20 mg/kg once a day for 10 days, vs DMSO-treated controls
Method: (§1) FIG. 6A: PolyP levels in platelets. Mice were treated with TNP or DMSO alone for 10 days (20 mg/kg body weight, once a day). The experiment was repeated three times and the data were pooled and analyzed together. Data shown are means±SEM (n=7 mice per group). FIG. 6B: LPS-induced polyP secretion in neutrophil-platelet co-cultures. Neutrophils (5×10^6) isolated from DMSO (N-DMSO) or TNP (N-TNP)-treated mice and platelets (1×10^9) isolated from DMSO (P-DMSO) or TNP (P-TNP)-treated mice were incubated in the presence of LPS (5 μg/mL) for 2 h at 37° C. Data shown are means±SEM of four experiments. FIG. 6C: LPS-induced NPA formation. Neutrophils and platelets were isolated from DMSO (untreated) and TNP-treated mice and incubated with LPS (1 μg/mL) for 2 h at 37° C. […] NPA formation was analyzed at 24 hr after the LPS instillation. […] FIG. 6H: Recruited neutrophils in alveolar spaces were quantified as volume fraction of the alveolar space using standard point-counting morphometry. […] FIG. 6I: Pulmonary edema formation was quantified as the percentage of edema area in the total parenchymal region using. […] FIG. 6J: Lung vascular permeability was evaluated by BALF total protein level. […] FIG. 6K: Lung wet weight-to-dry weight ratio was measured at 24 hr after E. coli instillation. […] NPA % was calculated as the percentage of CD66+, CD16+ and CD41 triple-positive cells (NPAs) among all CD66+ and CD16+ cells. […]

[2] = tested on: LPS-induced lung inflammation; experiment: LPS-induced lung inflammation in mice; format: in vivo, mouse; conditions: TNP-treated mice, 5 mg/kg LPS intratracheal, 24 hr
Method: Bacteria or LPS-induced acute pneumonia. After anesthesia with ketamine hydrochloride (100 mg/kg intraperitoneally (i.p.)) and xylazine (10 mg/kg i.p.), mouse tracheas were surgically exposed and a total volume of 40 μl of saline, a dose of 2×10^6 cfu of E. coli (strain 19138; American Type Culture Collection), a dose of 5×10^8 cfu of Stapyhlococcus aureus (strain 10390; American Type Culture Collection), or the indicated amount of LPS (LPS from E. coli O111:B4 or LPS from E. coli O157:H7; Sigma-Aldrich was instilled intratracheally via an angiocatheter inserted through the trachea and into the left bronchus. Colloidal carbon (1%) was included in the instillate to indicate deposition. […]
Neutrophil accumulation. […] The total number of cells in the BALF was counted by hemocytometry. […] The percentage of neutrophils in the whole population (% PMN) was determined accordingly. Total numbers of neutrophils (#PMN) recruited was calculated as follows: [#PMN]=[cell density]×volume×[% PMN]. Emigrated neutrophils in the alveolar air spaces were also quantified by morphometric analysis of tissue sections. Emigrated neutrophils in lung sections (5 mice/group) 24 h after infection were quantified using standard point-counting morphometry (7). […] At least three grids (300 points) were counted for each lung. […]

[3] = tested on: human platelets; experiment: PolyP levels in human platelets; format: cell-based; conditions: TNP 20 μM, room temperature, 4 days
[4] = tested on: neutrophil-platelet co-cultures; experiment: LPS-induced polyP secretion in neutrophil-platelet co-cultures; format: cell-based, mouse; conditions: cells from TNP-treated mice, LPS 5 μg/mL, 2 h, 37° C., vs DMSO-treated controls
Method: as §1

[5] = tested on: PtdIns(3,4,5)P3 signaling; experiment: PtdIns(3,4,5)P3 signaling in human neutrophils; format: cell-based; conditions: human neutrophils treated with TNP
[6] = tested on: neutrophils and platelets; experiment: Ex vivo neutrophil-platelet aggregate (NPA) formation, FACS; format: cell-based, mouse
Method: Neutrophil-platelet aggregation. Mouse and human neutrophils were isolated and purified as previously described (31). Whole blood was collected into ACD tubes and platelet-rich plasma was isolated by centrifuging twice at 100×g for 5 min. Neutrophils (0.5×106) and platelets (5×106) were incubated for 2 h at 37° C. with LPS in 1 ml Tyrode's buffer (Sigma) supplemented with 1% BSA. After incubation, mouse neutrophils and platelets were stained with CD11b, CD41, and Ly6G and analyzed by flow cytometry to detect NPAs. Human neutrophils and platelets were stained with CD66, CD16, and CD41. NPA % was calculated as the percentage of CD66+, CD16+ and CD41 triple-positive cells (NPAs) among all CD66+ and CD16+ cells.
Flow cytometry. Murine neutrophils and platelets were incubated as described above. Cells were then harvested, washed with ice-cold PBS, and stained with APC0-CD11b (eBioscience), PE-CY7-Ly6G (BD Bioscience), FITC-CD41 (eBioscience), and […] to detect leukocyte and platelet antigens. Samples were examined with a FACSCanto II™ flow cytometer (Becton Dickinson). Neutrophils were gated by their forward- and side-scatter characteristics and by their Ly-6G+/CD11b+ (neutrophil) expression pattern (30). Platelets were detected by CD41 staining NPAs were Ly-6G+CD41+. All data were analyzed using FlowJo™ software (TreeStar; FlowJo LLC).

[7] = tested on: human primary neutrophils and platelets; experiment: NPA formation between human neutrophils and platelets; format: cell-based
Method: as §1

[8] = tested on: PtdIns(3,4,5)P3 signaling; experiment: PtdIns(3,4,5)P3 signaling (phospho-Akt western blot) in mouse neutrophils; format: cell-based
Method: Mice were treated with TNP for 10 days (20 mg/kg body weight, once a day). Bone marrow neutrophils were isolated and lysed. Total/phosphorylated Akt in cell lysates was detected by western blotting. Relative amounts of phosphorylated Akt were quantified with NIH ImageJ™ software. Data shown are means±SEM of four experiments. *p<0.05 vs. neutrophils isolated from mice treated with DMSO alone

[9] = tested on: E. coli; experiment: E. coli-induced bacterial pneumonia in mice; format: in vivo, mouse
Method: Bacteria or LPS-induced acute pneumonia. After anesthesia with ketamine hydrochloride (100 mg/kg intraperitoneally (i.p.)) and xylazine (10 mg/kg i.p.), mouse tracheas were surgically exposed and a total volume of 40 μl of saline, a dose of 2×10^6 cfu of E. coli (strain 19138; American Type Culture Collection), a dose of 5×10^8 cfu of Stapyhlococcus aureus (strain 10390; American Type Culture Collection), or the indicated amount of LPS (LPS from E. coli O111:B4 or LPS from E. coli O157:H7; Sigma-Aldrich was instilled intratracheally via an angiocatheter inserted through the trachea and into the left bronchus. Colloidal carbon (1%) was included in the instillate to indicate deposition. After surgery and wound closure, mice were suspended by their front legs to help deliver the instillate deep into the left lobe before being placed back into the cage with soft and warm bedding for recovery. Mice were euthanized by CO2 at each time point. For polyP treatment, Medium Chain Polyphosphate (p100) (Kerafast Inc) was injected intraperitoneally (50 μg/g body weight) 10 min after the instillation of LPS. For treatment with IP6K1 inhibitor TNP (N2-(m-(trifluoromethyl)benzyl) N6-(p-nitrobenzyl)purine), mice were injected intraperitoneally with TNP once a day (20 mg/kg body weight) for 10 days before the induction of lung inflammation. TNP (Tocris Bioscience) was dissolved in DMSO/Tween80/water (1/1/8) at a concentration of 2 mg/ml and was injected directly without dilution.
Neutrophil accumulation. WT and Ip6k1-KO mice were anesthetized and instilled with bacteria or LPS as described above. After 24 h, mice were euthanized by CO2. The chest cavity was opened and a catheter was tied to the trachea. Bronchoalveolar lavage (BAL) was performed (1 mL PBS/15 mM EDTA×10) in each group. The BAL fluid (BALF) was centrifuged at 450×g for 10 min. The total number of cells in the BALF was counted by hemocytometry. Differential cell counts were conducted on cytospin preparations stained with a modified Wright-Giemsa stain (Volu-Sol, Inc.). Neutrophils were identified by their lobular or segmented nuclei. The percentage of neutrophils in the whole population (% PMN) was determined accordingly. Total numbers of neutrophils (#PMN) recruited was calculated as follows: [#PMN]=[cell density]×volume×[% PMN]. Emigrated neutrophils in the alveolar air spaces were also quantified by morphometric analysis of tissue sections. Emigrated neutrophils in lung sections (5 mice/group) 24 h after infection were quantified using standard point-counting morphometry (7). Briefly, mice were euthanized and their hearts tied off to maintain pulmonary blood volume. Lungs were then excised and fixed by intratracheal instillation of Bouin's solution at a pressure of 23 cm H2O and embedded in paraffin. Five to 6 μm-thick sections were cut and stained with hematoxylin and eosin (H&E). Neutrophils could be easily recognized by their lobular or segmented nuclei under high magnification. A counting grid (10×10, covering 70,000 μm2 of the magnified field) was reflected onto the field of view using a drawing tube. Randomly selected fields of pneumonic peripheral lung largely free of non-capillary blood vessels and bronchioles or larger airways were examined. At least three grids (300 points) were counted for each lung. The relative volumes of the parenchymal regions occupied by emigrated neutrophils were calculated by investigators blinded to the identities of the mice and were expressed as a percentage of the total parenchymal region volume (including both tissue and air spaces).
BALF total protein levels and cytokine/chemokine levels. BALF samples were obtained from mice 24 h after E. coli challenge. BAL was performed with 1 ml cold PBS/15 mM EDTA flushed in and out three times. Protein concentrations were measured in BALF using the Bio-Rad protein assay reagent. A standard curve was constructed using BSA. […]

Molecule: O=[N+]([O-])c1ccc(CNc2nc(NCc3cccc(C(F)(F)F)c3)nc3nc[nH]c23)cc1 [TNP, N2-(m-(trifluoromethyl)benzyl) N6-(p-nitrobenzyl)purine]
- intracellular polyP levels in platelets [1]: reduced
- infection-induced NPA formation in the lungs of live mice [2]: inhibited
- polyP levels in human platelets [3]: reduced
- LPS-elicited polyP secretion [4]: reduced
- PtdIns(3,4,5)P3-mediated cellular functions [5]: elevated
- PtdIns(3,4,5)P3 signaling [5]: substantially enhanced
- LPS-induced ex vivo NPA formation ([6]; neutrophils and platelets from TNP-treated mice, LPS 1 μg/mL, 2 h): inhibited
- NPA formation ([7]; TNP-treated neutrophils and untreated platelets): unaltered
- LPS-induced NPA formation ([7]; human primary neutrophils and platelets treated with TNP): suppressed
- PtdIns(3,4,5)P3-mediated cellular functions ([8]; mouse neutrophils treated with TNP): elevated
- PtdIns(3,4,5)P3 signaling, assessed by phospho-Akt ([8]; mouse neutrophils, TNP 20 mg/kg once a day for 10 days, bone marrow neutrophils): substantially enhanced; also recorded: elevated
- bactericidal activity (bacterial killing in inflamed lungs) ([9]; TNP 20 mg/kg i.p. once a day for 10 days before E. coli instillation): much improved
- edema formation ([9]; TNP-treated mice): less edema formation
- neutrophil accumulation in the inflamed lungs, BALF neutrophil counts ([9]; TNP-treated mice): suppressed
- neutrophil accumulation in the inflamed lungs, morphometric analysis of lung sections ([9]; TNP-treated mice): suppressed
- total BALF protein levels ([9]; TNP-treated mice): decreased
- pulmonary vascular permeability by lung wet-to-dry ratio ([9]; TNP-treated mice, 24 hr after E. coli instillation): reduction

Molecule: HOE140
- LPS-induced NPA formation ([6]; neutrophils pretreated with HOE140 150 nM for 5 min): inhibited

Molecule: LYS-BK
- NPA formation between IP6K1-deficient platelets and neutrophils ([6]; Lys-BK 1 μM together with HKa): could not restore NPA formation

B1: MIP2: a common proinflammatory cytokine (protein, UniProt P10889 28-100, looked up)
C-X-C motif chemokine 2: AVVASELRCQCLKTLPRVDFKNIQSLSVTPPGPHCAQTEVIATLKGGQKVCLDPEAPLVQKIIQKILNKGKAN
- NPA formation ([6]; MIP2 1 nM in place of LPS): failed to induce the same NPA formation
